Source: patent publication US20260262643A1, “HERBICIDAL BENZOXAZINES” (FMC CORPORATION, priority 2022, published 2026)

Columns and labels:
barnyardgrass [1] = assay: Test C postemergence; assay type: in vivo, Echinochloa crusgalli; details: 10 days
Outline: (§1)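 Visual injury score, 0–100 (100 = complete control), taken 10 days after treatment relative to untreated controls. Pre: directed spray onto soil over sown seeds. Post: foliar spray at one- to two-leaf stage, 2–10 cm. Solvent/surfactant formulation; loam–sand soil; greenhouse.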

ryegrass, Italian [2] = assay: Test C preemergence; assay type: in vivo, Lolium multiflorum; details: for Ryegrass, Italian plant response rating: preemergence; for Plant response rating, Ryegrass, Italian: Preemergence
Outline: as §1

corn [3] = assay: Test C preemergence; assay type: in vivo, Zea mays; details: for Corn plant response rating: preemergence; for Plant response rating, Corn: Preemergence
Outline: as §1

rice = assay: Test D flooded paddy test; assay type: in vivo, Oryza sativa; details: 250 g ai/ha, applied to paddy water, visual rating after 13 to 14 days, scale 0 to 100 (0 no effect, 100 complete control)
Outline: (§2)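 At the 2-leaf stage, floodwater 3 cm deep received the test compound; that depth persisted throughout. Plants scored visually 13 to 14 days on, 0 (no effect) to 100 (complete control), dash indicating no result.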

green foxtail [4] = assay: Test C preemergence; assay type: in vivo, Setaria viridis; details: for Foxtail, Green plant response rating: preemergence; for Plant response rating, Foxtail, Green: Preemergence
Outline: as §1

ragweed [5] = assay: Test C preemergence; assay type: in vivo, Ambrosia artemisiifolia; details: for Ragweed plant response rating: preemergence; for Plant response rating, Ragweed: Preemergence
Outline: as §1

wheat [6] = assay: Test C postemergence; assay type: in vivo, Triticum aestivum; details: 10 days
Outline: as §1

barnyardgrass [7] = assay: Test D flooded paddy test; assay type: in vivo, Echinochloa crus-galli; details: 250 g ai/ha, applied to paddy water, visual rating after 13 to 14 days, scale 0 to 100 (0 no effect, 100 complete control)
Outline: as §2

blackgrass [8] = assay: Test C postemergence; assay type: in vivo, Alopecurus myosuroides; details: 10 days
Outline: as §1

corn [9] = assay: Test C postemergence; assay type: in vivo, Zea mays; details: 10 days
Outline: as §1

ducksalad = assay: Test D flooded paddy test; assay type: in vivo, Heteranthera limosa; details: 250 g ai/ha, applied to paddy water, visual rating after 13 to 14 days, scale 0 to 100 (0 no effect, 100 complete control)
Outline: as §2

kochia [10] = assay: Test C postemergence; assay type: in vivo, Bassia scoparia; details: 10 days
Outline: as §1

soybean [11] = assay: Test C preemergence; assay type: in vivo, Glycine max; details: for Soybean plant response rating: preemergence; for Plant response rating, Soybean: Preemergence
Outline: as §1

blackgrass [12] = assay: Test C preemergence; assay type: in vivo, Alopecurus myosuroides; details: for Blackgrass plant response rating: preemergence; for Plant response rating, Blackgrass: Preemergence
Outline: as §1

ryegrass, Italian [13] = assay: Test C postemergence; assay type: in vivo, Lolium multiflorum; details: 10 days
Outline: as §1

green foxtail [14] = assay: Test C postemergence; assay type: in vivo, Setaria viridis; details: 10 days
Outline: as §1

pigweed, palmer [15] = assay: Test C postemergence; assay type: in vivo, Amaranthus palmeri; details: 10 days
Outline: as §1

oat, wild [16] = assay: Test C preemergence; assay type: in vivo, Avena fatua; details: for Oat, Wild plant response rating: preemergence; for Plant response rating, Oat, Wild: Preemergence
Outline: as §1

barnyardgrass [17] = assay: Test C preemergence; assay type: in vivo, Echinochloa crusgalli; details: for Barnyardgrass plant response rating: preemergence; for Plant response rating, Barnyardgrass: Preemergence
Outline: as §1

galium = assay: Test C postemergence; assay type: in vivo, Galium aparine; details: 10 days
Outline: as §1

horseweed = assay: Test C postemergence; assay type: in vivo, Erigeron canadensis; details: 10 days
Outline: as §1

sedge, umbrella = assay: Test D flooded paddy test; assay type: in vivo, Cyperus difformis; details: 250 g ai/ha, applied to paddy water, visual rating after 13 to 14 days, scale 0 to 100 (0 no effect, 100 complete control)
Outline: as §2

ragweed [18] = assay: Test C postemergence; assay type: in vivo, Ambrosia artemisiifolia; details: 10 days
Outline: as §1

pigweed, palmer [19] = assay: Test C preemergence; assay type: in vivo, Amaranthus palmeri; details: for Pigweed, Palmer plant response rating: preemergence; for Plant response rating, Pigweed, Palmer: Preemergence
Outline: as §1

kochia [20] = assay: Test C preemergence; assay type: in vivo, Bassia scoparia; details: for Kochia plant response rating: preemergence; for Plant response rating, Kochia: Preemergence
Outline: as §1

wheat [21] = assay: Test C preemergence; assay type: in vivo, Triticum aestivum; details: for Wheat plant response rating: preemergence; for Plant response rating, Wheat: Preemergence
Outline: as §1

oat, wild [22] = assay: Test C postemergence; assay type: in vivo, Avena fatua; details: 10 days
Outline: as §1

soybean [23] = assay: Test C postemergence; assay type: in vivo, Glycine max; details: 10 days
Outline: as §1

[24] = 500 g ai/ha, postemergence, 0 to 100 scale (0 no effect, 100 complete control)
[25] = Postemergence, 125 g ai/ha, 0 to 100 scale (0 no effect, 100 complete control)
[26] = 500 g ai/ha, 0 to 100 scale (0 no effect, 100 complete control)
[27] = 125 g ai/ha, 0 to 100 scale, 0 no effect, 100 complete control
[28] = 125 g ai/ha, postemergence, 0 to 100 scale, 0 no effect, 100 complete control
[29] = Postemergence, 500 g ai/ha, visual 0 to 100 scale (0 no effect, 100 complete control)
[30] = 500 g ai/ha, visual rating after 10 days, 0 to 100 scale (0 no effect, 100 complete control)
[31] = Test C, 125 g ai/ha, 0 to 100 scale (0 no effect, 100 complete control)

COC(C)(C)c1ncn(-c2ccc(C)c(C(=O)N3C[C@H](C)Oc4c(Cl)cccc43)c2)n1 [Compound 343]
30: Plant response rating, Ragweed (ragweed [5]; [27]) | Plant response rating, Soybean (soybean [11]; [27]) | Plant response rating, Horseweed (horseweed; [25]) | Plant response rating, Wheat (wheat [21]; [27])
35: Plant response rating, Barnyardgrass (Flood) (barnyardgrass [7])
50: Plant response rating, Blackgrass (blackgrass [12]; [27]) | Plant response rating, Foxtail, Green (green foxtail [14]; [25]) | Plant response rating, Pigweed, Palmer (pigweed, palmer [15]; [25])
70: Plant response rating, Barnyardgrass (barnyardgrass [1]; [24]) | Ragweed plant response rating (ragweed [5]; [26]) | Plant response rating, Ryegrass, Italian (ryegrass, Italian [13]; [25])
90: Plant response rating, Blackgrass (blackgrass [8]; [24]) | Plant response rating, Corn (corn [9]; [25]) | Plant response rating, Kochia (kochia [10]; [24]) | Blackgrass plant response rating (blackgrass [12]; [26]) | Plant response rating, Ryegrass, Italian (ryegrass, Italian [13]; [24]) | Plant response rating, Foxtail, Green (green foxtail [14]; [24]) | Oat, Wild plant response rating (oat, wild [16]; [26]) | Plant response rating, Oat, Wild (oat, wild [16]; [27]) | Plant response rating, Kochia (kochia [20]; [27]) | Wheat plant response rating (wheat [21]; [26]) | Plant response rating, Oat, Wild (oat, wild [22]; [24])
60: Corn plant response rating (corn [3]; [26]) | Plant response rating, Wheat (wheat [6]; [24]) | Plant response rating, Ragweed (ragweed [18]; [25]) | Plant response rating, Oat, Wild (oat, wild [22]; [25])
80: Plant response rating, Kochia (kochia [10]; [25]) | Plant response rating, Horseweed (horseweed; [24]) | Plant response rating, Ragweed (ragweed [18]; [24])
20: Plant response rating, Barnyardgrass (barnyardgrass [1]; [25]) | Plant response rating, Wheat (wheat [6]; [25])
45: Plant response rating, Ducksalad (Flood) (ducksalad)
100: Ryegrass, Italian plant response rating (ryegrass, Italian [2]; [26]) | Plant response rating, Ryegrass, Italian (ryegrass, Italian [2]; [27]) | Foxtail, Green plant response rating (green foxtail [4]; [26]) | Plant response rating, Foxtail, Green (green foxtail [4]; [27]) | Plant response rating, Corn (corn [9]; [24]) | Soybean plant response rating (soybean [11]; [26]) | Plant response rating, Pigweed, Palmer (pigweed, palmer [15]; [24]) | Barnyardgrass plant response rating (barnyardgrass [17]; [26]) | Plant response rating, Barnyardgrass (barnyardgrass [17]; [27]) | Plant response rating, Galium (galium; [24]) | Plant response rating, Galium (galium; [25]) | Pigweed, Palmer plant response rating (pigweed, palmer [19]; [26]) | Plant response rating, Pigweed, Palmer (pigweed, palmer [19]; [27]) | Kochia plant response rating (kochia [20]; [26]) | Plant response rating, Soybean (soybean [23]; [24]) | Plant response rating, Soybean (soybean [23]; [25])
65: Plant response rating, Sedge, Umbrella (Flood) (sedge, umbrella)
15: Plant response rating, Rice (Flood) (rice)
40: Plant response rating, Corn (corn [3]; [27]) | Plant response rating, Blackgrass (blackgrass [8]; [25])

C[C@H]1CN(C(=O)c2cc(-n3cnc(C4CCC4)n3)cc3c2OCCO3)c2cccc(Cl)c2O1 [Compound 157]
30: Plant response rating, Barnyardgrass (barnyardgrass [1]; [28]) | Plant response rating, Wheat (wheat [6]; [29]) | Plant response rating, Blackgrass (blackgrass [12]; [30]) | Blackgrass plant response rating (blackgrass [12]; [31]) | Plant response rating, Ryegrass, Italian (ryegrass, Italian [13]; [28]) | Plant response rating, Horseweed (horseweed; [28]) | Plant response rating, Wheat (wheat [21]; [30])
15: Plant response rating, Barnyardgrass (Flood) (barnyardgrass [7])
70: Plant response rating, Barnyardgrass (barnyardgrass [1]; [29]) | Ryegrass, Italian plant response rating (ryegrass, Italian [2]; [31]) | Plant response rating, Blackgrass (blackgrass [8]; [29]) | Plant response rating, Foxtail, Green (green foxtail [14]; [28])
80: Plant response rating, Ragweed (ragweed [5]; [30]) | Plant response rating, Ryegrass, Italian (ryegrass, Italian [13]; [29])
60: Plant response rating, Blackgrass (blackgrass [8]; [28]) | Plant response rating, Soybean (soybean [11]; [30])
10: Plant response rating, Corn (corn [9]; [28])
20: Plant response rating, Rice (Flood) (rice) | Plant response rating, Wheat (wheat [6]; [28]) | Plant response rating, Corn (corn [9]; [29]) | Kochia plant response rating (kochia [20]; [31]) | Plant response rating, Oat, Wild (oat, wild [22]; [28]) | Plant response rating, Oat, Wild (oat, wild [22]; [29])
50: Soybean plant response rating (soybean [11]; [31]) | Plant response rating, Oat, Wild (oat, wild [16]; [30]) | Barnyardgrass plant response rating (barnyardgrass [17]; 125 g ai/ha, 0 to 100 scale (0 no effect, 100 complete control))
45: Plant response rating, Sedge, Umbrella (Flood) (sedge, umbrella)
0: Plant response rating, Corn (corn [3]; [30]) | Corn plant response rating (corn [3]; [31]) | Plant response rating, Ducksalad (Flood) (ducksalad) | Oat, Wild plant response rating (oat, wild [16]; [31]) | Wheat plant response rating (wheat [21]; [31])
90: Plant response rating, Ryegrass, Italian (ryegrass, Italian [2]; [30]) | Ragweed plant response rating (ragweed [5]; [31]) | Plant response rating, Kochia (kochia [10]; [28]) | Plant response rating, Foxtail, Green (green foxtail [14]; [29]) | Plant response rating, Pigweed, Palmer (pigweed, palmer [15]; [28]) | Plant response rating, Barnyardgrass (barnyardgrass [17]; [30]) | Plant response rating, Horseweed (horseweed; [29]) | Plant response rating, Kochia (kochia [20]; [30])
100: Plant response rating, Foxtail, Green (green foxtail [4]; [30]) | Foxtail, Green plant response rating (green foxtail [4]; [31]) | Plant response rating, Kochia (kochia [10]; [29]) | Plant response rating, Pigweed, Palmer (pigweed, palmer [15]; [29]) | Plant response rating, Galium (galium; [28]) | Plant response rating, Galium (galium; [29]) | Plant response rating, Ragweed (ragweed [18]; [28]) | Plant response rating, Ragweed (ragweed [18]; [29]) | Plant response rating, Pigweed, Palmer (pigweed, palmer [19]; [30]) | Pigweed, Palmer plant response rating (pigweed, palmer [19]; [31]) | Plant response rating, Soybean (soybean [23]; [28]) | Plant response rating, Soybean (soybean [23]; [29])
